For one data set, the system named is S. cerevisiae. The format is cell-based. The settings on record: 48-hour treatment with CP (0.1 M), strains treated separately.
Another data set deals with C6 glioma cells. The data set is described as follows: Cyclophosphamide cytotoxicity by LDH release in C6 glioma cells. The format is cell-based, rat. A general note: LDH in the medium is a marker of cell lysis.
Data set [1] deals with primary rat mixed glial cells.
Description: (§4) Primary mixed glial cells were obtained from the cerebral cortex of 1 to 3 day old Sprague Dawley rat pups (Charles River) as described before. Cells cultured for 10-14 days in DMEM/F12 medium with 10% fetal bovine serum (FBS) were used in assays. C6, A10-85, 9L and RG2 rat glioma cell lines and LN229 human glioma cell line and SH-SY5Y human neuroblastoma cell line were maintained in DMEM/F12 medium with 10% FBS at 37° C. under 5% CO2.
(§5) Cells were seeded into 96-well microliter plates at 20,000-30,000 cells/well and incubated for 2 days. Cells were washed with phosphate buffered saline (PBS) prior to treatments as indicated in the text. All treatments were performed at 37° C. under 5% CO2.
Glucose restriction was done by incubating cells in glucose free DMEM (Invitrogen) supplemented with either low glucose (0.5 gL) or normal glucose (1.0 gL) for 24 hours. Serum restriction was done by incubating cells in DMEMIF12 with either 10% or 1% FBS for 24 hours. […]
(§6) Cytotoxicity was measured by either LDH release using the CytoTox 96 Non-Radioactive Cytotoxicity Assay kit (Promega) or the ability to reduce methylthiazolyldiphenyltetrazolium bromide (MTT). % LDH release was determined with reference to the maximum and background LDH release of control cells. […]
Cyclophosphamide (CP, Sigma) was used for in vitro chemotherapy studies. […] Cytotoxicity was measured by either lactate dehydrogenase released using the CytoTox 96 Non-Radioactive Cytotoxicity Assay kit (Promega) or the ability to reduce methylthiazolyldiphenyl-tetrazolium bromide (MTT). LDH released into the medium by lysed cells were measured with a 10-minute enzymatic assay that converts a tetrazolium salt (INT) into a red formazan product. A 96-well based colorimetric assay measured the amount of the red formazan formed, which is proportional to the number of dead cells. % LDH release was determined with reference to the maximum and background LDH release of control cells.
For data set [2], the system named is primary rat mixed glial cells. The data set is described as follows: Cyclophosphamide cytotoxicity by LDH release (serum restriction, IGF-I, aIR3) in primary glia. Type of data set: cell-based. The settings on record: 15 mg/ml CP, 10% serum.
Description: as §4
Cells were seeded into 96-well microliter plates at 20,000-30,000 cells/well and incubated for 2 days. Cells were washed with phosphate buffered saline (PBS) prior to treatments as indicated in the text. All treatments were performed at 37° C. under 5% CO2. […]
as §6
Cyclophosphamide (CP, Sigma) was used for in vitro chemotherapy studies. […] Cytotoxicity was measured by either lactate dehydrogenase released using the CytoTox 96 Non-Radioactive Cytotoxicity Assay kit (Promega) or the ability to reduce methylthiazolyldiphenyl-tetrazolium bromide (MTT). […]
The test system of the next data set is LID mice. The settings on record: for mortality: 500 mg/kg cyclophosphamide i.p. Here is the method: Thirty-four to forty-two-week old LID and their control L/L-mice were used to evaluate the role of circulating liver-derived IGF-I in stress resistance. LID and L/L-mice were generated using the Cre/loxP system as described before. […] All mice were individually caged throughout the experiment and had access to food and water ad libitum. Both LID and L/L-mice were each injected 500 mg/kg of cyclophosphamide i.p. using 29G insulin syringes. Cyclophosphamide was prepared in saline at 40 mg/ml and warmed prior to injection. Mice were routinely monitored for weight loss and signs of pain and stress. Survival time was the main criterion for determining the effect of low circulating IGF-I on the resistance to high-dose cyclophosphamide. The statistical significance of differential survival between experimental groups was determined by Kaplan-Meier curves and log-rank test using GraphPad Prism 4 software (San Diego, Calif.).

Data set [3] deals with sch9/aktΔRAS2^val19 cells. The data set is described as follows: Yeast viability (CFU) in mixed cultures, chronic MMS treatment, RAS2val19-expressing cells. The format is cell-based, S. cerevisiae. The settings on record: 48-hour treatment, 0.01% MMS. Here is the method: (§1) Overnight cultures were diluted to OD600 0.1 into SDC medium. After 24 hours (day I), the appropriate strains were mixed 1:1 based on OD600 and incubated for 2 hours. The mixed cultures were then treated with either cyclophosphamide (CP, 0.1 M) or […] (MMS, 0.01%, Sigma) in medium or water (STS). For treatment SDC, MMS was introduced directly into the mixed culture to a final concentration of 0.01%. However, due to the high concentration of CP (0.1 M) used, CP was dissolved directly into the medium. To do so, mixed cultures were centrifuged for 5 minutes at 2,500 rpm and the media was collected, in which CP was dissolved to a concentration of 0.1 M. The mixed culture was then resuspended in the CP-containing medium. […] Viability was measured by quantifying colony-forming units (CFUs) every 24 hours by plating onto appropriate selective media. Viability of individual strains was measured using the same method as for the mixed cultures.
(§2) Overnight SDC cultures were diluted to OD600 0.1 into fresh SDC medium. […] Viability was measured as colony-forming units (CFUs) every 24 hours by plating onto appropriate selective media. Viability of individual strains was measured using the same method as for the mixed cultures. Relative survival shown was determined by the percentage of the ratio between the treated and untreated (control) cells.

In a further data set the test system is sch9/aktΔ. The data set is described as follows: Yeast viability (CFU) in mixed cultures, chronic MMS treatment, sch9/aktΔ cells. Type of data set: cell-based, S. cerevisiae. The settings on record: 48-hour treatment, 0.01% MMS, mixed culture. Here is the method: as §1, §2
Data set [4] has as its system cortical neurons from E18 rat embryos. The settings on record: pre-treatment with inhibitor. The method, then:
FIG. 23. […] Cortical neurons from E18 rat embryos were cultured onto 96-well plates (A) or glass coverslips in 6-well plates (B). On 10-14 DIV, the neurons were pre-treated with MEK1/ERK1/2 inhibitors U0126 or SL327. Oxidative stress was induced by hydrogen peroxide or menadione. Cell viability was measured with MTT survival assay (A) or live/dead assay (B). C) % death was calculated from the number of dead (red) and live (green) cells.

Data set [5] deals with primary rat cortical neurons. The experiment in a line: IGF-I and paraquat oxidative toxicity, MTT, cortical neurons. The format is cell-based. The settings on record: 100 ng/ml IGF-I 24 hr, 100 μM paraquat. Here is the method:
(§3) FIG. 12. […] Primary rat cortical neurons or PC12 cells incubated in 1% serum and 4 g/L glucose were treated for 24 hr with vehicle, 100 μM of paraquat, 100 ng/ml of IGF-I followed by 100 μM of paraquat, or 100 ng/ml of IGF-1 alone and were then subjected to MTT reduction activity assay to assess cell viability. Data from 4 independent experiments are normalized to control and expressed as the mean±S.E.M.
Primary neurons from embryonic day 18 Sprague-Dawley rat cerebral cortices were dissociated in neurobasal medium (Invitrogen) supplemented with 0.5 mM L-glutamine, 25 μM L-glutamic acid and 2% B-27 and plated at 640 cells/mm^2 in 96-well plates which were pre-coated with 10 microg/ml poly-D-lysine dissolved in Borax buffer (0.15 M, pH 8.4). Neurons were maintained at 37° C. in 5% CO2 in neurobasal medium supplemented with B-27 and 0.5 mM L-glutamine for 4 days.
Primary rat neurons and PC12 cells were treated with IGF-1 and paraquat to determine the effect of IGF-1 on oxidative stress. Cortical neurons were treated for 24 hours in Eagle's minimal essential medium (Invitrogen) supplemented with 21 mM glucose and 1% horse serum. PC12 cells were plated at 5×10^4 cells/well onto poly-D-lysine coated. 96-well plates and were grown for 24 hours in F12K 1% HS. […] Survival was determined by the MTT assay and presented as percent ratio of treated to control.

Another data set deals with PC12 cells. The data set is described as follows: IGF-I and paraquat oxidative toxicity, MTT, PC12 cells. Type of data set: cell-based, rat. The settings on record: 100 ng/ml IGF-I 24 hr, 100 μM paraquat. Here is the method: as §3
Primary rat neurons and PC12 cells were treated with IGF-1 and paraquat to determine the effect of IGF-1 on oxidative stress. Cortical neurons were treated for 24 hours in Eagle's minimal essential medium (Invitrogen) supplemented with 21 mM glucose and 1% horse serum. PC12 cells were plated at 5×10^4 cells/well onto poly-D-lysine coated. 96-well plates and were grown for 24 hours in F12K 1% HS. Both types of cells were then treated with either 100 μM of paraquat, IGF-1 (100 ng/ml) followed 30 minutes later by paraquat (100 μM) or IGF-1 (100 ng/ml) alone in appropriate media. Survival was determined by the MTT assay and presented as percent ratio of treated to control.

“Also recorded” adds a separate entry of the source. Read-outs that look alike come from different tables or passages of the source.

What is called mortality is the percentage killed.

Description for C6 glioma cells: as §4, §5
Glucose restriction was done by incubating cells in glucose free DMEM (Invitrogen) supplemented with either low glucose (0.5 gL) or normal glucose (1.0 gL) for 24 hours. Serum restriction was done by incubating cells in DMEMIF12 with either 10% or 1% FBS for 24 hours. IGF-I treatment was carried out by incubating cells for 48 hours in DMEM/F12 with 1% FBS and rhIGF-I (100 n g/ml, ProSpec-Tany TechnoGene, Rehovot, Israel), which is shown to be within the IGF-I level range for middle age humans. To antagonize IGF-I receptor activity, cells were incubated with neutralizing monoclonal anti-IGF-IR antibody (aIR3, 1 pg/ml; Calbiochem) in DMEM/F12 1% FBS for 24 hours.
as §6
Cyclophosphamide (CP, Sigma) was used for in vitro chemotherapy studies. […] Cytotoxicity was measured by either lactate dehydrogenase released using the CytoTox 96 Non-Radioactive Cytotoxicity Assay kit (Promega) or the ability to reduce methylthiazolyldiphenyl-tetrazolium bromide (MTT). LDH released into the medium by lysed cells were measured with a 10-minute enzymatic assay that converts a tetrazolium salt (INT) into a red formazan product.
Description for S. cerevisiae: Overnight cultures were diluted to OD600 0.1 into SDC medium. After 24 hours (day I), the appropriate strains were mixed 1:1 based on OD600 and incubated for 2 hours. […] For treatment SDC, MMS was introduced directly into the mixed culture to a final concentration of 0.01%. However, due to the high concentration of CP (0.1 M) used, CP was dissolved directly into the medium. To do so, mixed cultures were centrifuged for 5 minutes at 2,500 rpm and the media was collected, in which CP was dissolved to a concentration of 0.1 M. The mixed culture was then resuspended in the CP-containing medium. For treatments in water (STS), mixed cultures were centrifuged for 5 minutes at 2,500 rpm and the media was replaced with either distilled/sterile water or drug-dissolved water. Viability was measured by quantifying colony-forming units (CFUs) every 24 hours by plating onto appropriate selective media. Viability of individual strains was measured using the same method as for the mixed cultures.

On to `O=P1(N(CCCl)CCCl)NCCCO1` (stereo not drawn) [CP, cyclophosphamide], for which the “toxicity to RAS2^val19 and wild type cells” value in the data set with S. cerevisiae is listed as “toxic”. The “toxicity to C6 glioma cells in 10% serum versus 1% serum” value with C6 glioma cells (15 mg/ml CP) is given as “as toxic”. This molecule registered a glial cells resistant in data set [1] (12 mg/ml CP, 0.5 g/L glucose) of 80%. For the same molecule, in data set [1] (12 mg/ml CP, 1 g/L glucose), the cells that survived is recorded as 20%. In addition, in data set [1] (normal vs cancer cells), the “differential stress resistance of mammalian cells by the starvation-response methods” value is “less than 10 fold”. Besides, the “toxicity to primary glial cells” value in [2] is listed as “toxic”. Besides, the average weight loss with LID mice (LID mice, 500 mg/kg cyclophosphamide) came out at 10%. The mortality is 30% in the data set with LID mice (LID mice) and 70% with LID mice (control mice). Moreover, the weight loss in the data set with LID mice (control mice, 500 mg/kg cyclophosphamide) worked out at 20%. Further, in the data set on LID mice (surviving LID mice), the “signs of toxicity in surviving mice” value is “did not show any signs of toxicity”.
In the case of `COS(C)(=O)=O` [MMS, methyl methanesulfonate], the “sch9/aktΔRAS2^val19 cells that survived” value in [3] (mixed culture (Example I)) is “none”; in data set [3] (mixed culture (Example II)), “less than 5%”. Also, the “sch9/aktΔ cells that survived” value with sch9/aktΔ is “great majority”.
Consider `N#CC(=C(/N)Sc1ccccc1N)/C(C#N)=C(\N)Sc1ccccc1N` [U0126], for which the “resistance of neurons to oxidative stress (hydrogen peroxide or menadione)” value in data set [4] is “protects neurons against oxidative stress”.
For “IGF-I: rhIGF-I (ProSpec-Tany TechnoGene), 100 ng/ml”, the “sensitization to oxidative toxicity” value in data set [5] is on record as “sensitizes”; in the data set on PC12 cells, “not in PC12 cells”. Besides, in the data set with C6 glioma cells (100 ng/ml IGF-I), the “increase in the toxicity of CP to C6 glioma cells” value is “minor increase; also recorded: did not increase”.

These data come from patent US10821177B2, “Induction of differential stress resistance and uses thereof” (University of Southern California, priority 2007, dated 2020).
